These are literature values, as cited in patent publication US9302967B2, “Substituted cathechols as inhibitors of IL-4 and IL-5 for the treatment of bronchial asthma” (Council of Scientific & Industrial Research, priority 2011, dated 2016).

The target of the data set is T1, COX-2 (Homo sapiens, UniProt P35354).
T1 sequence (P35354 18-604): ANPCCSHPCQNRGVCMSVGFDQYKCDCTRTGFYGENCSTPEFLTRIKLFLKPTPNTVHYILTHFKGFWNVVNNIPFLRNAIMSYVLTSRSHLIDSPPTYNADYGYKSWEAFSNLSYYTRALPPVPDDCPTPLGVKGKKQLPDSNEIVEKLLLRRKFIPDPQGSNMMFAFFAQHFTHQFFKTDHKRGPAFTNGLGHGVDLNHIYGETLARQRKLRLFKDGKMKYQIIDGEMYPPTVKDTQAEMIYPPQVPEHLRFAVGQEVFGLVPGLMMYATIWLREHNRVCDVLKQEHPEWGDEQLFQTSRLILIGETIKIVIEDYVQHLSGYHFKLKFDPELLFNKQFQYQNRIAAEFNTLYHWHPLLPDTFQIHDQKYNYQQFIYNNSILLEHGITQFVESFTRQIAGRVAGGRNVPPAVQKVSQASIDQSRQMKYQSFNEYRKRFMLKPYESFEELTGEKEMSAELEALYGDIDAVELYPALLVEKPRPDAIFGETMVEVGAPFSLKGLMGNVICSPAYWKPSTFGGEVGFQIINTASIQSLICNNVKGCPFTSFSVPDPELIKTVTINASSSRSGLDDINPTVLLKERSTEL
As to conditions: cited from earlier work.

As to `C=CCc1ccc(O)c(O)c1` [Compound 1, 4-allyl-benzene-1,2-diol], the COX-2 inhibition entry is “potent COX-1/COX-2 inhibitor”.
